Each block holds one compound with its values, some of them ahead of it.
Columns and labels:
Conditions in all cases: 72 h
[1] = system: CAL-51
Summary of the method: (§1)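 Seeding of breast cancer cell lines (20 µl suspension) was done into 384-well plates pre-loaded with compound at 5 concentrations, 10-fold apart, covering a compound-specific 10,000-fold range. The plates were incubated for 72 h, read for CellTox Green fluorescence (485/520 nm), and then read for CellTiter-Glo luminescence after 10 min at room temperature. Every plate was normalised to 0.1 % DMSO and a positive kill control. Curve fitting gave the EC50, censored at the top concentration.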

[2] = system: CAL-120
Description: (§2)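 Drug sensitivity and resistance testing (DSRT) of breast cancer cell lines in 384-well plates, 5 concentrations in 10-fold dilutions over a compound-specific 10,000-fold range. After 72 h, cytotoxicity was read by CellTox Green fluorescence and viability by CellTiter-Glo luminescence (multiplexed), normalised to DMSO and benzethonium chloride controls. EC50 is the inflection point of the fitted dose-response curve (bottom asymptote free, so it can be relative for partial curves) and is censored at the highest tested concentration. Rows with DSS 0 (no meaningful response) were excluded.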

[3] = system: MDA-MB-468
Description: as §2

[4] = system: CAL-51; remark: listed apart in the source
Summary of the method: (§3)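 Breast cancer cell lines in 20 µl suspension were seeded onto 384-well plates pre-loaded with compound dissolved in 5 µl medium, then incubated 72 h. For viability, 2.5 µl CellTiter-Blue was added for 2 h at 37 °C and fluorescence read at 560/590 nm. Each plate was normalised to vehicle and a positive kill control and checked by Z'-factor. EC50 comes from the fitted percent-inhibition dose-response curve, censored at the highest concentration; rows with zero drug sensitivity score were dropped.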

[5] = system: HCC1937
Summary of the method: as §3

[6] = system: CAL-51; remark: listed apart in the source
Description: as §2

[7] = system: MDA-MB-436
Summary of the method: as §3

[8] = system: BT-549
Summary of the method: as §3

[9] = system: Hs578T
Summary of the method: as §3

[10] = system: CAL-120; remark: listed apart in the source
Summary of the method: as §3

[11] = system: MDA-MB-468; remark: listed apart in the source
Summary of the method: as §3

[12] = system: MDA-MB-436; remark: listed apart in the source
Summary of the method: as §1

[13] = system: BT-549; remark: listed apart in the source
Summary of the method: as §1

[14] = system: HCC1599
Summary of the method: as §1

[15] = system: MDA-MB-436; remark: listed apart in the source
Description: as §2

[16] = system: HCC1143
Summary of the method: as §1

[17] = system: Hs578T; remark: listed apart in the source
Summary of the method: as §1

[18] = system: CAL-148
Summary of the method: as §1

[19] = system: HCC1937; remark: listed apart in the source
Summary of the method: as §1

[20] = system: SK-BR-3
Summary of the method: as §1

[21] = system: DU-4475
Summary of the method: as §1

[22] = system: CAL-148; remark: listed apart in the source
Description: as §2

[23] = system: MDA-MB-453
Summary of the method: as §3

[24] = system: CAL-148; remark: listed apart in the source
Summary of the method: as §3

[25] = system: CAL-85-1
Summary of the method: as §3

[26] = system: DU-4475; remark: listed apart in the source
Summary of the method: as §3

[27] = system: HDQ-P1
Summary of the method: as §3

[28] = system: HCC1143; remark: listed apart in the source
Summary of the method: as §3

[29] = system: MFM-223
Summary of the method: as §3

[30] = system: SK-BR-3; remark: listed apart in the source
Summary of the method: as §3

[31] = system: BT-474
Summary of the method: as §3

[32] = system: MDA-MB-231
Summary of the method: as §3

[33] = system: MDA-MB-453; remark: listed apart in the source
Summary of the method: as §1

[34] = system: CAL-120; remark: listed apart in the source
Summary of the method: as §1

[35] = system: MFM-223; remark: listed apart in the source
Summary of the method: as §1

[36] = system: CAL-85-1; remark: listed apart in the source
Summary of the method: as §1

[37] = system: MDA-MB-231; remark: listed apart in the source
Summary of the method: as §1

[38] = system: MCF-10A
Summary of the method: as §1

[39] = system: HCC1143; remark: listed apart in the source
Description: as §2

[40] = system: BT-549; remark: listed apart in the source
Description: as §2

[41] = system: Hs578T; remark: listed apart in the source
Description: as §2

[42] = system: HCC1937; remark: listed apart in the source
Description: as §2

[43] = system: MFM-223; remark: listed apart in the source
Description: as §2

[44] = system: CAL-85-1; remark: listed apart in the source
Description: as §2

[45] = system: BT-474; remark: listed apart in the source
Description: as §2

[46] = system: MDA-MB-231; remark: listed apart in the source
Description: as §2

[47] = system: HDQ-P1; remark: listed apart in the source
Description: as §2

[48] = system: MCF-10A; remark: listed apart in the source
Description: as §2

SMILES: CC1(C)CCC(CN2CCN(c3ccc(C(=O)NS(=O)(=O)c4ccc(NCC5CCOCC5)c([N+](=O)[O-])c4)c(Oc4cnc5[nH]ccc5c4)c3)CC2)=C(c2ccc(Cl)cc2)C1 [ABT-199]
- EC50, CellTiter-Glo [1]: 702 nM
- EC50, CellTox Green [2]: > 10000 nM
- EC50, CellTox Green [3]: 3.5 nM

- EC50, CellTiter-Blue viability [5]: 398 nM
SMILES: O=C1CN2Cc3c(ccc(Cl)c3Cl)N=C2N1 [Anagrelide]
- EC50, CellTiter-Blue viability [4]: 77.5 nM
- EC50, CellTiter-Glo [1]: > 10000 nM
- EC50, CellTox Green [6]: 30.6 nM

- EC50, CellTiter-Blue viability [7]: 1060 nM
- EC50, CellTiter-Blue viability [8]: 2570 nM
- EC50, CellTiter-Blue viability [5]: > 10000 nM
- EC50, CellTiter-Blue viability [11]: 650 nM
- EC50, CellTiter-Glo [12]: 1120 nM
- EC50, CellTiter-Glo [13]: 1280 nM
- EC50, CellTiter-Glo [14]: 1290 nM
SMILES: Nc1ncn([C@@H]2O[C@H](CO)[C@@H](O)[C@H]2O)c(=O)n1 [Azacitidine]
- EC50, CellTiter-Blue viability [9]: 6120 nM
- EC50, CellTiter-Blue viability [10]: > 10000 nM
- EC50, CellTox Green [15]: > 10000 nM
- EC50, CellTox Green [3]: 595 nM

- EC50, CellTiter-Glo [12]: 1570 nM
- EC50, CellTiter-Glo [16]: 832 nM
- EC50, CellTiter-Glo [13]: 852 nM
- EC50, CellTiter-Glo [19]: 696 nM
- EC50, CellTiter-Glo [14]: 3970 nM
- EC50, CellTiter-Glo [20]: 6450 nM
SMILES: CC(=O)N(O)CCCCCNC(=O)CCC(=O)N(O)CCCCCNC(=O)CCC(=O)N(O)CCCCCN [Deferoxamine]
- EC50, CellTiter-Glo [17]: 2660 nM
- EC50, CellTiter-Glo [18]: 1920 nM
- EC50, CellTiter-Glo [1]: 6360 nM
- EC50, CellTiter-Glo [21]: 3480 nM
- EC50, CellTox Green [22]: 221 nM
- EC50, CellTox Green [6]: 1900 nM

- EC50, CellTiter-Blue viability [23]: 2.02 nM
- EC50, CellTiter-Blue viability [7]: 2.53 nM
- EC50, CellTiter-Blue viability [28]: 1.71 nM
- EC50, CellTiter-Blue viability [8]: 1.03 nM
- EC50, CellTiter-Blue viability [5]: 1.02 nM
- EC50, CellTiter-Blue viability [30]: 1.9 nM
- EC50, CellTiter-Blue viability [31]: 6.71 nM
- EC50, CellTiter-Blue viability [32]: 2.39 nM
- EC50, CellTiter-Blue viability [11]: 0.808 nM
- EC50, CellTiter-Glo [33]: 7.15 nM
- EC50, CellTiter-Glo [12]: 2.14 nM
- EC50, CellTiter-Glo [16]: 1.17 nM
- EC50, CellTiter-Glo [13]: 1.03 nM
- EC50, CellTiter-Glo [19]: 0.69 nM
- EC50, CellTiter-Glo [14]: 12.2 nM
- EC50, CellTiter-Glo [20]: 1.37 nM
- EC50, CellTiter-Glo [37]: 5.5 nM
SMILES: CC(=O)O[C@@]12CO[C@@H]1C[C@H](O)[C@@]1(C)C(=O)[C@H](O)C3=C(C)[C@@H](OC(=O)[C@H](O)[C@@H](NC(=O)OC(C)(C)C)c4ccccc4)C[C@@](O)([C@@H](OC(=O)c4ccccc4)[C@H]21)C3(C)C [Docetaxel]
- EC50, CellTiter-Blue viability [24]: 1.85 nM
- EC50, CellTiter-Blue viability [4]: 4.62 nM
- EC50, CellTiter-Blue viability [25]: 2.27 nM
- EC50, CellTiter-Blue viability [26]: 2.52 nM
- EC50, CellTiter-Blue viability [27]: 1.39 nM
- EC50, CellTiter-Blue viability [9]: 1.36 nM
- EC50, CellTiter-Blue viability [10]: 2.27 nM
- EC50, CellTiter-Blue viability [29]: 2.57 nM
- EC50, CellTiter-Glo [17]: 2.47 nM
- EC50, CellTiter-Glo [18]: 1.52 nM
- EC50, CellTiter-Glo [1]: 5.86 nM
- EC50, CellTiter-Glo [34]: 3.3 nM
- EC50, CellTiter-Glo [35]: 3.29 nM
- EC50, CellTiter-Glo [36]: 1.46 nM
- EC50, CellTiter-Glo [21]: 8.31 nM
- EC50, CellTiter-Glo [38]: 1.04 nM
- EC50, CellTox Green [39]: 108 nM
- EC50, CellTox Green [40]: 57.8 nM
- EC50, CellTox Green [41]: 4.24 nM
- EC50, CellTox Green [6]: 1.63 nM
- EC50, CellTox Green [42]: 946 nM
- EC50, CellTox Green [43]: 12.2 nM
- EC50, CellTox Green [44]: 1.87 nM
- EC50, CellTox Green [45]: 5.12 nM
- EC50, CellTox Green [46]: 1.94 nM
- EC50, CellTox Green [47]: 123 nM
- EC50, CellTox Green [48]: 3.14 nM
